Experimental data reported in ChEMBL document CHEMBL1201862, “PubChem BioAssay data set” (2004).
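How tested: cells in 96-well plates exposed to compound for 48 hours at five concentrations. Abbreviation: GI50, concentration required for 50% inhibition of growth.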 Active and inactive are the calls of the source. Rule as the data show it: active = GI50 up to about 1.1 µM and inactive = higher.

How the values were obtained:
Assay in all cases: DTP human tumour cell line panel, 48 h
[1] = tested on: IGROV-1
[2] = tested on: DU-145
[3] = tested on: M14
[4] = tested on: HT-29
[5] = tested on: NCI/ADR-RES
[6] = tested on: LOX IMVI
[7] = tested on: NCI-H226
[8] = tested on: HCC 2998
[9] = tested on: OVCAR-8
[10] = tested on: SNB-75
[11] = tested on: MCF7
[12] = tested on: SN12C
[13] = tested on: UACC-257
[14] = tested on: SF-268
[15] = tested on: SK-MEL-28
[16] = tested on: UO-31
[17] = tested on: HL-60
[18] = tested on: SK-MEL-5
[19] = tested on: RXF 393
[20] = tested on: T47D
[21] = tested on: OVCAR-5
[22] = tested on: HCT-116
[23] = tested on: U-251
[24] = tested on: SNB-19
[25] = tested on: CAKI-1
[26] = tested on: MDA-MB-231
[27] = tested on: HCT-15
[28] = tested on: EKVX
[29] = tested on: SW-620
[30] = tested on: NCI-H460
[31] = tested on: MOLT-4
[32] = tested on: OVCAR-4
[33] = tested on: HOP-92
[34] = tested on: UACC-62
[35] = tested on: 786-0
[36] = tested on: TK-10
[37] = tested on: ACHN
[38] = tested on: BT-549
[39] = tested on: KM12
[40] = tested on: MDA-N
[41] = tested on: NCI-H522
[42] = tested on: NCI-H23
[43] = tested on: COLO 205
[44] = tested on: K562
[45] = tested on: Hs-578T
[46] = tested on: SK-MEL-2
[47] = tested on: CCRF-CEM
[48] = tested on: SF-295
[49] = tested on: A549
[50] = tested on: PC-3
[51] = tested on: SF-539
[52] = tested on: A498
[53] = tested on: MDA-MB-435
[54] = tested on: HOP-62
[55] = tested on: SR
[56] = tested on: OVCAR-3
[57] = tested on: RPMI-8226
[58] = tested on: SK-OV-3
[59] = tested on: Malme-3M

In the case of O=c1[nH]nc(Nc2ccccc2)c2nnn(Cc3ccccc3)c12, the GI50 [1] is reported as > 100 µM (inactive), the GI50 [2] is reported as > 100 µM (inactive) and the GI50 [3] is reported as > 100 µM (inactive). For the same compound, the GI50 [4] was > 100 µM (inactive), the GI50 [5] was 50.8 µM (inactive) and the GI50 [6] was > 100 µM (inactive). The GI50 [7] was 20.3 µM (inactive), the GI50 [8] was > 100 µM (inactive) and the GI50 [9] was 19.2 µM (inactive). The GI50 [10] was 18.7 µM (inactive), the GI50 [11] was > 100 µM (inactive) and the GI50 [12] was > 100 µM (inactive). The GI50 [13] was > 100 µM (inactive), the GI50 [14] was > 100 µM (inactive) and the GI50 [15] was > 100 µM (inactive). The GI50 [16] was > 100 µM (inactive), the GI50 [17] was > 100 µM (inactive) and the GI50 [18] was > 100 µM (inactive). The GI50 [19] was > 100 µM (inactive), the GI50 [20] was > 100 µM (inactive) and the GI50 [21] was > 100 µM (inactive). The GI50 [22] was 83.9 µM (inactive), the GI50 [23] was 30.7 µM (inactive) and the GI50 [24] was 74 µM (inactive). The GI50 [25] was > 100 µM (inactive), the GI50 [26] was 71.3 µM (inactive) and the GI50 [27] was > 100 µM. The GI50 [28] was > 100 µM (inactive), the GI50 [29] was > 100 µM (inactive) and the GI50 [30] was 85.3 µM (inactive). For the same compound, the GI50 [31] was > 100 µM (inactive), the GI50 [32] was 8.32 µM (inactive) and the GI50 [33] was 57 µM (inactive). For the same compound, the GI50 [34] was > 100 µM (inactive), the GI50 [35] was 25.3 µM (inactive) and the GI50 [36] was > 100 µM (inactive). For the same compound, the GI50 [37] was > 100 µM (inactive), the GI50 [38] was > 100 µM (inactive) and the GI50 [39] was > 100 µM (inactive). The GI50 [40] was > 100 µM (inactive), the GI50 [41] was > 100 µM (inactive) and the GI50 [42] was > 100 µM (inactive). The GI50 [43] was > 100 µM (inactive), the GI50 [44] was > 100 µM (inactive) and the GI50 [45] was 17.6 µM (inactive). The GI50 [46] was > 100 µM (inactive), the GI50 [47] was > 100 µM (inactive) and the GI50 [48] was 86.9 µM (inactive). The GI50 [49] was > 100 µM (inactive), the GI50 [50] was > 100 µM (inactive) and the GI50 [51] was 54.2 µM (inactive). For the same compound, the GI50 [52] was > 100 µM (inactive), the GI50 [53] was > 100 µM (inactive) and the GI50 [54] was 4.52 µM (inactive). The GI50 [55] was > 100 µM (inactive).

CS(=O)(=O)Nc1ccc(NCc2c[nH]c3ccc4ncccc4c23)cc1 was tested, and the GI50 [1] was 48.6 µM (inactive), the GI50 [2] was 26.1 µM (inactive) and the GI50 [3] was 20.9 µM (inactive). The GI50 [4] was 34.8 µM (inactive), the GI50 [5] was > 100 µM (inactive) and the GI50 [6] was 26.4 µM (inactive). The GI50 [7] was 26.2 µM (inactive), the GI50 [9] was 34 µM (inactive) and the GI50 [10] was 30.3 µM (inactive). The GI50 [11] was 23.1 µM (inactive), the GI50 [12] was 25.8 µM (inactive) and the GI50 [13] was 23.1 µM (inactive). For the same compound, the GI50 [14] was 23.7 µM (inactive), the GI50 [15] was 26.1 µM (inactive) and the GI50 [16] was 33.3 µM (inactive). The GI50 [17] was 22.3 µM (inactive), the GI50 [18] was 14.9 µM (inactive) and the GI50 [19] was 23.9 µM (inactive). The GI50 [20] was 20.6 µM (inactive), the GI50 [21] was 40.3 µM (inactive) and the GI50 [22] was 20.3 µM (inactive). For the same compound, the GI50 [23] was 23.6 µM (inactive), the GI50 [24] was 49.1 µM (inactive) and the GI50 [56] was 31.1 µM (inactive). The GI50 [25] was 19.6 µM (inactive), the GI50 [26] was 27.4 µM (inactive) and the GI50 [27] was 27.2 µM. The GI50 [28] was 40.4 µM (inactive), the GI50 [57] was 11 µM (inactive) and the GI50 [29] was 32.3 µM (inactive). For the same compound, the GI50 [30] was 30 µM (inactive), the GI50 [31] was 13.6 µM (inactive) and the GI50 [32] was 25.9 µM (inactive). The GI50 [33] was 52.6 µM (inactive), the GI50 [34] was 15 µM (inactive) and the GI50 [35] was 29.9 µM (inactive). The GI50 [36] was 25.6 µM (inactive), the GI50 [37] was 20.6 µM (inactive) and the GI50 [38] was 30.3 µM (inactive). The GI50 [39] was 17.5 µM (inactive), the GI50 [40] was 18 µM (inactive) and the GI50 [41] was 18.5 µM (inactive). For the same compound, the GI50 [42] was 14.1 µM (inactive), the GI50 [43] was 18.6 µM (inactive) and the GI50 [44] was 18.7 µM (inactive). The GI50 [45] was 22.3 µM (inactive), the GI50 [46] was 17.1 µM (inactive) and the GI50 [47] was 18.8 µM (inactive). The GI50 [48] was 24.2 µM (inactive), the GI50 [49] was 43.4 µM (inactive) and the GI50 [58] was 50.8 µM (inactive). The GI50 [50] was 19 µM (inactive), the GI50 [51] was 24.8 µM (inactive) and the GI50 [59] was 23.7 µM (inactive). The GI50 [52] was 20.3 µM (inactive), the GI50 [53] was 16.9 µM (inactive) and the GI50 [54] was 36.5 µM (inactive). The GI50 [55] was 13.3 µM (inactive).
